Laboratory results: patent US12157730B2, “Heteroaryl derivative, method for producing same, and pharmaceutical composition comprising same as effective component” (VORONOI INC., priority 2019, dated 2024)

Target: T1, Ba/F3 cell EGFR Exon20 ins NPH (Homo sapiens, UniProt P00533, INS773NPH)
T1 construct: expressed in transfected cells; host or cells: Ba/F3
Test: Ba/F3 cell proliferation suppression, EGFR Exon20 ins NPH
Type: cell-based
Settings: GI50 class; Ba/F3 cell line with NPH inserted at Exon20 of EGFR; 72 hours
In short: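 Cells (3000–5000/well) plated 24 h before compound, 12-point 3-fold dilutions at 0.3 nM to 50 um final; Ba/F3 lines grown with 5 ng/ml IL-3. Viability by CellTiter-Glo luminescence after 72 h, growth ratio vs control, GI50 from curves; triplicate.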

SMILES	Ba/F3 (NPH) Activity
C=CC(=O)Nc1cc(Nc2cc(N3OCC[C@@H]3c3cc(F)ccc3F)ncn2)c(OC)cc1N1CCN(C2CC2)CC1 [compound 299, N-(2-(4-cyclopropylpiperazine-1-yl)-5-((6-((R)-3-(2,5-difluorophenyl)isoxazolidine-2-yl)pyrimidine-4-yl)amino)-4-methoxyphenyl) acrylamide]	A (GI50 < 50 nM)
C=CC(=O)Nc1cc(Nc2cc(N3OCC[C@@H]3c3ccc(Cl)c(F)c3)ncn2)c(OC)cc1N1CCN(C)CC1 [compound 795, N-(5-((6-((R)-3-(4-chloro-3-fluorophenyl)isoxazolidine-2-yl)pyrimidine-4-yl)amino)-4-methoxy-2-(4-methylpiperazine-1-yl)phenyl)acrylamide]	B (50 nM ≤ GI50 < 500 nM)
C=CC(=O)Nc1cc(Nc2cc(N3OCC[C@@H]3c3cccc(C(F)(F)F)c3)ncn2)c(OC)cc1N1CCC(N2CCN(C3CC3)CC2)CC1 [Example 148, N-(2-(4-(4-cyclopropylpiperazine-1-yl)piperidine-1-yl)-4-methoxy-5-((6-((R)-3-(3-(trifluoromethyl)phenyl)isoxazolidine-2-yl)pyrimidine-4-yl)amino)phenyl)acrylamide]	A (GI50 < 50 nM)
C=CC(=O)Nc1cc(Nc2cc(N3OCC[C@@H]3c3ccccc3)ncn2)c(OC)cc1N1CCC(N2CCN(C3CC3)CC2)CC1 [Example 56, N-(2-(4-(4-cyclopropylpiperazine-1-yl)piperidine-1-yl)-4-methoxy-5-((6-((R)-3-phenylisoxazolidine-2-yl)pyrimidine-4-yl)amino)phenyl) acrylamide]	A (GI50 < 50 nM)
C=CC(=O)Nc1cc(Nc2cc(N3OCC[C@@H]3c3cc(F)cc(F)c3)ncn2)c(OC)cc1N1CCC(N2C[C@@H](C)N(C3CC3)C[C@@H]2C)CC1 [Example 108, N-(2-(4-((2S,5R)-4-cyclopropyl-2,5-dimethylpiperazine-1-yl)piperidine-1-yl)-5-((6-((R)-3-(3,5-difluorophenyl)isoxazolidine-2-yl)pyrimidine-4-yl)amino)-4-methoxyphenyl) acrylamide]	A (GI50 < 50 nM)
C=CC(=O)Nc1cc(Nc2cc(N3OCC[C@@H]3c3cc(F)ccc3F)ncn2)c(OC)cc1N(C)CCOC [compound 327, N-(5-((6-((R)-3-(2,5-difluorophenyl)isoxazolidine-2-yl)pyrimidine-4-yl)amino)-4-methoxy-2-((2-methoxyethyl) (methyl)amino)phenyl)acrylamide]	B (50 nM ≤ GI50 < 500 nM)
C=CC(=O)Nc1cc(Nc2cc(N3OCC[C@@H]3c3cccc(F)c3F)ncn2)c(OC)cc1N1CCC(N2CCN(C)CC2)CC1 [compound 921, N-(5-((6-((R)-3-(2,3-difluorophenyl)isoxazolidine-2-yl)pyrimidine-4-yl)amino)-4-methoxy-2-(4-(4-methylpiperazine-1-yl)piperidine-1-yl)phenyl) acrylamide]	A (GI50 < 50 nM)
C=CC(=O)Nc1cc(Nc2cc(N3OCC[C@@H]3c3cccc(Cl)c3Cl)ncn2)c(OC)cc1N1CCN(CC)CC1 [compound 480, N-(5-((6-((R)-3-(2,3-dichlorophenyl)isoxazolidine-2-yl)pyrimidine-4-yl)amino)-2-(4-ethylpiperazine-1-yl)-4-methoxyphenyl) acrylamide]	A (GI50 < 50 nM)
C=CC(=O)Nc1cc(Nc2cc(N3OCC[C@@H]3Cc3cccc(Cl)c3Cl)ncn2)c(OC)cc1N1CCN(CC)CC1 [compound 1008, N-(5-((6-((S)-3-(2,3-dichlorobenzyl)isoxazolidine-2-yl)pyrimidine-4-yl)amino)-2-(4-ethylpiperazine-1-yl)-4-methoxyphenyl) acrylamide]	A (GI50 < 50 nM)
C=CC(=O)Nc1cc(Nc2cc(N3OCC[C@@H]3c3cccc(Cl)c3)ncn2)c(OC)cc1N1CCC(N2CC[C@H](N(C)C)C2)CC1 [compound 508, N-(5-((6-((R)-3-(3-chlorophenyl)isoxazolidine-2-yl)pyrimidine-4-yl)amino)-2-(4-((S)-3-(dimethylamino)pyrolidine-1-yl)piperidine-1-yl)-4-methoxyphenyl) acrylamide]	A (GI50 < 50 nM)
C=CC(=O)Nc1cc(Nc2cc(N3OCC[C@@H]3c3cc(F)cc(F)c3)ncn2)c(OC)cc1N1CCC(N2CCN(C3CC3)C[C@H]2C)CC1 [Example 112, N-(2-(4-((R)-4-cyclopropyl-2-methylpiperazine-1-yl)piperidine-1-yl)-5-((6-((R)-3-(3,5-difluorophenyl)isoxazolidine-2-yl)pyrimidine-4-yl)amino)-4-methoxyphenyl) acrylamide]	A (GI50 < 50 nM)
C=CC(=O)Nc1cc(Nc2cc(N3OCC[C@@H]3c3cccc(C(F)(F)F)c3)ncn2)c(OC)cc1N1CCC(N2CCN(C3CC3)[C@H](C)C2)CC1 [compound 942, N-(2-(4-((R)-4-cyclopropyl-3-methylpiperazine-1-yl)piperidine-1-yl)-4-methoxy-5-((6-((R)-3-(3-(trifluoromethyl)phenyl)isoxazolidine-2-yl)pyrimidine-4-yl)amino)phenyl) acrylamide]	A (GI50 < 50 nM)
C=CC(=O)Nc1cc(Nc2cc(N3OCC[C@@H]3c3ccccc3)ncn2)c(OC)cc1N1C2CC1CN(C)C2 [Example 35, N-(4-methoxy-2-(3-methyl-3,6-diazabicyclo[3.1.1]heptane-6-yl)-5-((6-((R)-3-phenylisoxazolidine-2-yl)pyrimidine-4-yl)amino)phenyl) acrylamide]	B (50 nM ≤ GI50 < 500 nM)
C=CC(=O)Nc1cc(Nc2cc(N3OCC[C@@H]3c3cccc(Cl)c3C)ncn2)c(OC)cc1N1CCC(N2CCN(C3CC3)[C@@H](C)C2)CC1 [Example 153, N-(5-((6-((R)-3-(3-chloro-2-methylphenyl)isoxazolidine-2-yl)pyrimidine-4-yl)amino)-2-(4-((S)-4-cyclopropyl-3-methylpiperazine-1-yl)piperidine-1-yl)-4-methoxyphenyl) acrylamide]	A (GI50 < 50 nM)
C=CC(=O)Nc1cc(Nc2cc(N3OCC[C@@H]3Cc3cccc(Cl)c3F)ncn2)c(OC)cc1N1CCN(C2CC2)CC1 [compound 1017, N-(5-((6-((S)-3-(3-chloro-2-fluorobenzyl)isoxazolidine-2-yl)pyrimidine-4-yl)amino)-2-(4-cyclopropylpiperazine-1-yl)-4-methoxyphenyl) acrylamide]	A (GI50 < 50 nM)
C=CC(=O)Nc1cc(Nc2cc(N3OCC[C@@H]3c3cccc(F)c3F)ncn2)c(OC)cc1N1CCN(C)[C@@H](C)C1 [compound 883, N-(5-((6-((R)-3-(2,3-difluorophenyl)isoxazolidine-2-yl)pyrimidine-4-yl)amino)-2-((S)-3,4-dimethylpiperazine-1-yl)-4-methoxyphenyl) acrylamide]	A (GI50 < 50 nM)
C=CC(=O)Nc1cc(Nc2cc(N3OCC[C@@H]3c3ccc(F)cc3F)ncn2)c(OC)cc1N1CCN(CC)CC1 [compound 351, N-(5-((6-((R)-3-(2,4-difluorophenyl)isoxazolidine-2-yl)pyrimidine-4-yl)amino)-2-(4-ethylpiperazine-1-yl)-4-methoxyphenyl) acrylamide]	A (GI50 < 50 nM)
C=CC(=O)Nc1cc(Nc2cc(N3OCC[C@@H]3c3ccc(C)nc3)ncn2)c(OC)cc1N1CCN(CCN(C)C)CC1 [Example 219, N-(2-(4-(2-(dimethylamino)ethyl)piperazine-1-yl)-4-methoxy-5-((6-((R)-3-(6-methylpyridine-3-yl)isoxazolidine-2-yl)pyrimidine-4-yl)amino)phenyl)acrylamide]	B (50 nM ≤ GI50 < 500 nM)
C=CC(=O)Nc1cc(Nc2cc(N3OCC[C@@H]3c3cc(F)cc(F)c3)ncn2)c(OC)cc1N1CCC(N2C[C@@H](C)N(CC)[C@@H](C)C2)CC1 [compound 827, N-(5-((6-((R)-3-(3,5-difluorophenyl)isoxazolidine-2-yl)pyrimidine-4-yl)amino)-2-(4-((3S,5R)-4-ethyl-3,5-dimethylpiperazine-1-yl)piperidine-1-yl)-4-methoxyphenyl) acrylamide]	A (GI50 < 50 nM)
C=CC(=O)Nc1cc(Nc2cc(N3OCC[C@@H]3c3ccc(Cl)cc3F)ncn2)c(OC)cc1N1CCC(N(C(=O)C=C)C2CCN(C(C)C)CC2)CC1 [compound 402, N-(1-(2-acrylamido-4-((6-((R)-3-(4-chloro-2-fluorophenyl)isoxazolidine-2-yl)pyrimidine-4-yl)amino)-5-methoxyphenyl)piperidine-4-yl)-N-(1-isopropylpiperidine-4-yl)acrylamide]	A (GI50 < 50 nM)
C=CC(=O)Nc1cc(Nc2cc(N3OCC[C@@H]3c3cc(F)cc(F)c3)ncn2)c(OCC)cc1N1CCC(N2CCN(C3CC3)CC2)CC1 [Example 116, N-(2-(4-(4-cyclopropylpiperazine-1-yl)piperidine-1-yl)-5-((6-((R)-3-(3,5-difluorophenyl)isoxazolidine-2-yl)pyrimidine-4-yl)amino)-4-ethoxyphenyl) acrylamide]	C (500 nM ≤ GI50 < 5000 nM)
C=CC(=O)Nc1cc(Nc2cc(N3OCC[C@@H]3c3cc(F)ccc3F)ncn2)c(OC)cc1N1CCC(N2CCOCC2)CC1 [compound 766, N-(5-((6-((R)-3-(2,5-difluorophenyl)isoxazolidine-2-yl)pyrimidine-4-yl)amino)-4-methoxy-2-(4-morpholinopiperidine-1-yl)phenyl)acrylamide]	A (GI50 < 50 nM)
C=CC(=O)Nc1cc(Nc2cc(N3OCC[C@@H]3c3ccc(F)cc3F)ncn2)c(OC)cc1N1CCC(N2CCN(C)CC2)CC1 [compound 352, N-(5-((6-((R)-3-(2,4-difluorophenyl)isoxazolidine-2-yl)pyrimidine-4-yl)amino)-4-methoxy-2-(4-(4-methylpiperazine-1-yl)piperidine-1-yl)phenyl) acrylamide]	A (GI50 < 50 nM)
